Results taken from ChEMBL document CHEMBL5465560, “Selectivity Literature for EUbOPEN Chemogenomic Library” (2024).
Substitutions are numbered along the chain they refer to.

Tests used:
[1] = target: Prostaglandin E2 receptor EP2 subtype (Homo sapiens) (UniProt P43116); experiment: Selectivity interaction (Eurofins CEREP Diversity Profile (receptors and ion channels)) EUB0000279b PTGER2; settings: at 10 µM
[2] = test system: Receptor-type tyrosine-protein kinase FLT3 (Homo sapiens), P36888 [UNDEFINED MUTATION]; experiment: (§1) Selectivity interaction (Ambit KINOMEscan and KiNATiv profiling in Jurkat cells) EUB0000090b FLT3; format: cell-based; settings: at 1 µM
[3] = test system: T1, Receptor-type tyrosine-protein kinase FLT3 (Homo sapiens), P36888 [D835Y]; experiment: as §1; format: cell-based; settings: at 1 µM
T1 sequence (whole entry): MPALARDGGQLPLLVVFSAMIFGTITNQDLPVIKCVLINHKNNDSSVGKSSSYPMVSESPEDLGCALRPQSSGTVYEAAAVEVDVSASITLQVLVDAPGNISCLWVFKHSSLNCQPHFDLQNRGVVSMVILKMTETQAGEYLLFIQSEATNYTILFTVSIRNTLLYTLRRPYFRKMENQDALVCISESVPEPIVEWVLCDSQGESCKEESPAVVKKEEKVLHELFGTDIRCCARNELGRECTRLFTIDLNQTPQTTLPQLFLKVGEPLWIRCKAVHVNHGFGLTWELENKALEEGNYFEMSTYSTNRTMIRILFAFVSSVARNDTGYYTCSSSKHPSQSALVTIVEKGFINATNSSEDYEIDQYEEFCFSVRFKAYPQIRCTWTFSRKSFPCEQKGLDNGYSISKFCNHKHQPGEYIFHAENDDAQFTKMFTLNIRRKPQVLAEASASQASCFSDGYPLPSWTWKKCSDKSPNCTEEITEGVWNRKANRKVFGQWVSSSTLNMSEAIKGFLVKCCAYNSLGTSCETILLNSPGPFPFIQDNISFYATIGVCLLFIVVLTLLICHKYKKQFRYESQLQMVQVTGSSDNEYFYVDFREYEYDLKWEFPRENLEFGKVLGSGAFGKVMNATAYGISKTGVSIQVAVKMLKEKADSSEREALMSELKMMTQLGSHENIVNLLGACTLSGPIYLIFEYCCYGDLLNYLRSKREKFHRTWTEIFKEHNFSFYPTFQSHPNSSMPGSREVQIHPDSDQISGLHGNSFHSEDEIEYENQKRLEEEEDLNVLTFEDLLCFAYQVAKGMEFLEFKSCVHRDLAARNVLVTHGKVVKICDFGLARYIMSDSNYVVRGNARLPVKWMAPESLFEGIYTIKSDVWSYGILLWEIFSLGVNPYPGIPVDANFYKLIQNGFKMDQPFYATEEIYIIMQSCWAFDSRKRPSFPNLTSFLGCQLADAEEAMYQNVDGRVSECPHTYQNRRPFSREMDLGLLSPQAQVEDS

[4] = test system: T2, Receptor-type tyrosine-protein kinase FLT3 (Homo sapiens), P36888 [N841I]; experiment: as §1; format: cell-based; settings: at 1 µM
T2 sequence (whole entry): T1 sequence (whole entry) with Y835D, N841I

[5] = test system: T3, Receptor-type tyrosine-protein kinase FLT3 (Homo sapiens), P36888 [D835H]; experiment: as §1; format: cell-based; settings: at 1 µM
T3 sequence (whole entry): T1 sequence (whole entry) with Y835H

Sequence of Prostaglandin E2 receptor EP2 subtype (Homo sapiens) (P43116 whole entry): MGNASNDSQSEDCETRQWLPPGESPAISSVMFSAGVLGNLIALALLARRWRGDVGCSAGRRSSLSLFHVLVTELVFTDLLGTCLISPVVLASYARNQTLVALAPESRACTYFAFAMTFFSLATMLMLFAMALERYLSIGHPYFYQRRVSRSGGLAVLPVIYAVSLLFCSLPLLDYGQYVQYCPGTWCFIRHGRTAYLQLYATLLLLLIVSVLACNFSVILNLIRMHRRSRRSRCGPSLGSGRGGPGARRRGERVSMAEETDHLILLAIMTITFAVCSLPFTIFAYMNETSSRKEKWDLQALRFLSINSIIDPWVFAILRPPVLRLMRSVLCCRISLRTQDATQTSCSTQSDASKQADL

% of control [1] | SMILES | % of control [2] | % of control [3] | % of control [4] | % of control [5]
95% | CC(=O)c1cc(-c2ccccc2OCC2CC2)c2ncccn12 |  |  |  | 
 | CN(C)C/C=C/C(=O)Nc1ccc(C(=O)N2CCCC(Nc3ncc(Cl)c(-c4c[nH]c5ccccc45)n3)C2)cc1 (stereo not given) | 86% | 76% | 89% | 64%
